# Data published in the NIST ThermoML archive (doi:10.1016/j.jct.2016.03.018).
# Numbers after ± are expanded uncertainties.
# Settings: Liquid, Closed cell (Static) method
vapor or sublimation pressure (253.15 K),vapor or sublimation pressure (263.15 K),Compound,vapor or sublimation pressure (273.15 K),vapor or sublimation pressure (283.15 K),vapor or sublimation pressure (293.15 K)
,,"F/C=C\C(F)(F)F [(Z)-1,3,3,3-tetrafluoro-1-propene]",68.5 ± 1 kPa,102.5 ± 1.1 kPa,148.9 ± 1.1 kPa
244.1 ± 1.2 kPa,345.1 ± 1.4 kPa,CCC [propane],474.4 ± 1.7 kPa,636.4 ± 2.1 kPa,836.3 ± 2.6 kPa
